Experimental data: PubChem BioAssay (NCI)
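Method: 48-hour compound exposure of cells in 96-well plates, five concentrations, linear interpolation of endpoints. GI50 = concentration required for 50% inhibition of growth. TGI: concentration producing complete growth inhibition.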

Key:
Experiment in all cases: NCI tumour cell line growth inhibition, 48 h
SK-OV-3 ovarian = system: SK-OV-3 ovarian
UACC-62 melanoma = system: UACC-62 melanoma
UACC-257 melanoma = system: UACC-257 melanoma
SK-MEL-28 melanoma = system: SK-MEL-28 melanoma
786-0 renal = system: 786-0 renal
SF-268 CNS = system: SF-268 CNS
RXF 393 renal = system: RXF 393 renal
SN12C renal = system: SN12C renal

Compound	TGI (SK-OV-3 ovarian) [µM]	TGI (UACC-62 melanoma) [µM]	TGI (UACC-257 melanoma) [µM]	TGI (SK-MEL-28 melanoma) [µM]	TGI (786-0 renal) [µM]	TGI (SF-268 CNS) [µM]	TGI (RXF 393 renal) [µM]	TGI (SN12C renal) [µM]	GI50 (SN12C renal) [µM]	GI50 (SK-OV-3 ovarian) [µM]	GI50 (UACC-62 melanoma) [µM]	GI50 (UACC-257 melanoma) [µM]	GI50 (SF-268 CNS) [µM]	GI50 (RXF 393 renal) [µM]
CN(C)CCNc1ccc2c(=O)n(CCN(C)C)c(=O)n3c4ccc(O)cc4c(=O)c1c23	1.04	0.147	0.795	0.863	0.156	0.416	0.224	–	–	–	–	–	–	–
O=C(Nc1ccccc1)N(C1=NCC(CI)S1)c1ccc(F)c(F)c1 (centres undefined)	> 100	–	> 100	38.4	> 100	> 100	–	> 100	–	–	–	–	–	–
CCO/C(=N/S(=O)(=O)C(F)(F)F)N(C(C)C)C(C)C	–	> 100	> 100	> 100	> 100	> 100	> 100	> 100	–	–	–	–	–	–
Cc1ccc(S(=O)(=O)NC(=O)Nc2nnc(S(N)(=O)=O)s2)cc1	> 100	> 100	–	–	> 100	> 100	> 100	–	–	–	–	–	–	–
S=C1c2ccc(Cl)cc2-n2cnnc2C2CSCN12 (centres undefined)	> 100	> 100	> 100	> 100	> 100	> 100	> 100	> 100	–	–	–	–	–	–
CC1=NNC(=O)C1C1C(=O)NN=C(c2c[nH]c3ccccc23)C1Br (centres undefined)	> 100	> 100	> 100	> 100	> 100	> 100	> 100	> 100	–	–	–	–	–	–
CC(=O)O[C@H]1CC(C)(C)C(=C=C/C(C)=C/C=C/C=C/C=C(C)/C=C2C=C(/C=C/[C@@]34O[C@]3(C)C[C@@H](O)CC4(C)C)C(=O)O/2)[C@](C)(O)C1	–	24	51.5	> 100	85.9	43.6	20.5	35.8	–	–	–	–	–	–
COC(=O)C1=C(O)C(C(=O)OC)C2CC(=O)CC1C2(C)C (centres undefined)	> 100	> 100	> 100	> 100	> 100	> 100	> 100	> 100	–	–	–	–	–	–
N#CCCN(CCC#N)c1ccc(/C=C2\N=C(c3ccccc3)N(c3ccc(F)cc3)C2=O)cc1	> 100	> 100	> 100	> 100	> 100	> 100	> 100	> 100	–	–	–	–	–	–
O=C(/C=C(/C=C/c1ccc2[nH]ccc2c1)OB(F)F)/C=C/c1ccc2[nH]ccc2c1	> 100	5.02	> 100	–	–	6.41	3.63	18.9	2.6	3.43	1.85	12.2	1.51	1.56
CCOC(=O)c1c(C)n(Cc2ccc(Cl)cc2Cl)c2c1cc(O)c1[nH]c3c(c12)CCCC3	> 100	49.2	43.2	45	> 100	56.4	41.2	58.6	–	–	–	–	–	–
CC(C)(C)c1ccccc1N1C(=O)c2ccc3c4c(ccc(c24)C1=O)N(c1ccccc1C(C)(C)C)C3=O	> 100	> 100	> 100	> 100	> 100	> 100	> 100	> 100	–	–	–	–	–	–
COc1ccc(N2CC(=O)N(C(=O)COc3ccc(OCC(=O)N4C(=O)CN(c5ccc(OC)cc5)C4=S)cc3)C2=S)cc1	> 100	> 100	> 100	> 100	> 100	> 100	> 100	> 100	–	–	–	–	–	–
O=C(Nc1ccccc1F)c1cc2ccc(O)cc2oc1=Nc1cccc(F)c1	> 100	29.6	65.6	38.7	30	79.1	–	–	–	–	–	–	–	–
Cn1nc2ccc([N+](=O)[O-])c(Cn3nnc4ccccc43)c2n1	> 100	> 100	> 100	> 100	> 100	> 100	> 100	> 100	–	–	–	–	–	–
O=S1(=O)c2ccccc2Oc2ccc(C(/C=N/O)=N/O)cc21	> 100	> 100	–	> 100	> 100	> 100	63.6	> 100	–	–	–	–	–	–
Cc1cc(C)nc(NS(=O)(=O)c2ccc(NC(=O)c3c4ccccc4nc4ccccc34)cc2)n1	> 100	> 100	> 100	> 100	> 100	> 100	–	> 100	–	–	–	–	–	–
C[C@H](c1ccccc1)N1C(=O)[C@@H](O)[C@H]1[C@H](CO)OCc1ccccc1	> 100	> 100	> 100	> 100	> 100	> 100	–	> 100	–	–	–	–	–	–
N#Cc1c(-c2ccc(Cl)cc2)c2c(nn3c4ccc5ccccc5c4nnc23)[nH]c1=O	7.99	3.24	18.8	5.28	6.16	8.26	3.72	12.2	–	–	–	–	–	–
O=C(Nc1ccc(N2C(=O)CSC2c2ccccc2O)cc1)c1ccc(N2C(=O)CSC2c2ccccc2O)cc1 (centres undefined)	62.3	98.1	> 100	> 100	> 100	> 100	> 100	> 100	–	–	–	–	–	–
COc1cc2c(c(O)c1O)C(=O)C1CCC(=O)N1C2c1cccc2ccccc12 (centres undefined)	> 50	> 50	> 50	> 50	> 50	> 50	> 50	> 50	–	–	–	–	–	–
COc1ccc(N2C(=O)C3c4[nH]c5ccc(OCc6ccccc6)cc5c4C4CCC(c5ccccc5)CC4C3C2=O)cc1 (centres undefined)	22.6	29	> 100	–	7.51	37.4	21.1	> 100	–	–	–	–	–	–
Cc1ccc2nc(SCC(=O)N=Nc3c(O)[nH]c4ccccc34)n(-c3ccccc3)c(=O)c2c1	26.7	30.6	55.7	31.2	29.5	26.6	27	29.1	–	–	–	–	–	–
CC(C)/C(Cl)=N/OC(=O)Nc1ccc(Br)cc1	30.3	17	28.7	14.1	3.63	34	23.9	4.62	–	–	–	–	–	–
O=C(O)CN(CC(=O)O)C1CCCCC1N1CC(=O)OC(=O)C1 (centres undefined)	> 100	> 100	> 100	> 100	> 100	> 100	–	> 100	–	–	–	–	–	–
